Source: ChEMBL document CHEMBL1201862, “PubChem BioAssay data set” (2004)
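Grown in 96-well plates, cells were treated for 48 hours with each compound at five concentrations. Insufficient inhibition: endpoint recorded as highest concentration tested. GI50: concentration for 50% inhibition of growth.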 Active and inactive are the calls of the source. Rule as the data show it: active = GI50 up to about 1.1 µM and inactive = higher.

What was measured:
Assay in all cases: NCI tumour cell line growth inhibition, 48 h
SK-MEL-5 = tested on: SK-MEL-5
HCT-15 = tested on: HCT-15
CCRF-CEM = tested on: CCRF-CEM
UACC-257 = tested on: UACC-257
LOX IMVI = tested on: LOX IMVI
786-0 = tested on: 786-0
NCI-H522 = tested on: NCI-H522
SNB-75 = tested on: SNB-75
HL-60 = tested on: HL-60
IGROV-1 = tested on: IGROV-1
HOP-92 = tested on: HOP-92
OVCAR-4 = tested on: OVCAR-4
M14 = tested on: M14
UACC-62 = tested on: UACC-62
HOP-62 = tested on: HOP-62
SN12C = tested on: SN12C
COLO 205 = tested on: COLO 205
HT-29 = tested on: HT-29
SF-539 = tested on: SF-539
UO-31 = tested on: UO-31

SMILES	GI50 (SK-MEL-5)	GI50 (HCT-15) [µM]	GI50 (CCRF-CEM)	GI50 (UACC-257)	GI50 (LOX IMVI)	GI50 (786-0)	GI50 (NCI-H522)	GI50 (SNB-75)	GI50 (HL-60)	GI50 (IGROV-1)	GI50 (HOP-92)	GI50 (OVCAR-4)	GI50 (M14)	GI50 (UACC-62)	GI50 (HOP-62)	GI50 (SN12C)	GI50 (COLO 205)	GI50 (HT-29)	GI50 (SF-539)	GI50 (UO-31)
C/C(CC(O)(C(F)(F)F)C(F)(F)F)=N/Nc1ccc([N+](=O)[O-])cc1[N+](=O)[O-]	1.68 µM (inactive)	2.85	3.41 µM (inactive)	2.87 µM (inactive)	3.3 µM (inactive)	3.5 µM (inactive)	2.07 µM (inactive)	2.69 µM (inactive)	2.94 µM (inactive)	4.15 µM (inactive)	1.8 µM (inactive)	3.42 µM (inactive)	3.61 µM (inactive)	3.02 µM (inactive)	2.99 µM (inactive)	3.7 µM (inactive)	2.05 µM (inactive)	2.69 µM (inactive)	3.78 µM (inactive)	2.32 µM (inactive)
COc1ccc2cc(CN3CCC(C4CCN(Cc5ccc6cc(OC)ccc6c5)CC4)CC3)ccc2c1	1.66 µM (inactive)	1.45	2.16 µM (inactive)	2.09 µM (inactive)	2.14 µM (inactive)	2.06 µM (inactive)	2.3 µM (inactive)	4.45 µM (inactive)	2.33 µM (inactive)	8.77 µM (inactive)	2.37 µM (inactive)	4.42 µM (inactive)	2.33 µM (inactive)	1.97 µM (inactive)	6.43 µM (inactive)	8.95 µM (inactive)	1.78 µM (inactive)	2.2 µM (inactive)	3.19 µM (inactive)	3.14 µM (inactive)
Cc1cccc(NC(=S)N/N=C2\C(=O)Nc3ccccc32)c1	23.3 µM (inactive)	73.8	55 µM (inactive)	> 100 µM (inactive)	51.4 µM (inactive)	59.4 µM (inactive)	> 100 µM (inactive)	63.1 µM (inactive)	67.8 µM (inactive)	49.3 µM (inactive)	> 100 µM (inactive)	34.9 µM (inactive)	60.8 µM (inactive)	> 100 µM (inactive)	62.7 µM (inactive)	91.4 µM (inactive)	78.3 µM (inactive)	> 100 µM (inactive)	48.3 µM (inactive)	63.2 µM (inactive)
COC(=O)C#CC(N)=O	> 100 µM (inactive)	> 100	13.9 µM (inactive)	27.7 µM (inactive)	> 35.8 µM (inactive)	> 59.3 µM (inactive)	> 63.1 µM (inactive)	35.1 µM (inactive)	4.94 µM (inactive)	> 100 µM (inactive)	20.6 µM (inactive)	> 100 µM (inactive)	19.5 µM (inactive)	> 64.7 µM (inactive)	> 100 µM (inactive)	> 100 µM (inactive)	> 100 µM (inactive)	> 100 µM (inactive)	> 100 µM (inactive)	> 100 µM (inactive)
CC(=O)N(C)SCC(NC(=O)C(Cc1ccccc1)NC(=O)OCc1ccccc1)C(=O)NC(Cc1ccccc1)C(=O)NC(Cc1cn(C=O)c2ccccc12)C(=O)NC(CCCCNC(=O)OCc1ccccc1)C(=O)NC(C(=O)NC(CSN(C)C(C)=O)C(=O)NO)C(C)OCc1ccccc1 (stereo not given)	> 100 µM (inactive)	> 100	> 100 µM (inactive)	> 100 µM (inactive)	> 100 µM (inactive)	> 100 µM (inactive)	> 100 µM (inactive)	> 100 µM (inactive)	> 100 µM (inactive)	> 100 µM (inactive)	> 100 µM (inactive)	> 100 µM (inactive)	> 100 µM (inactive)	> 100 µM (inactive)	> 100 µM (inactive)	> 100 µM (inactive)	> 100 µM (inactive)	> 100 µM (inactive)	> 100 µM (inactive)	> 100 µM (inactive)
C=C(C)COc1ccc2c(c1)CCC1C2CCC2(C)C(=O)/C(=N/O)CC12 (stereo not given)	8.11 µM (inactive)	2.41	1.94 µM (inactive)	11.3 µM (inactive)	3.08 µM (inactive)	2.86 µM (inactive)	3.58 µM (inactive)	1.9 µM (inactive)	1.78 µM (inactive)	1.61 µM (inactive)	2.3 µM (inactive)	2.39 µM (inactive)	4.13 µM (inactive)	14.9 µM (inactive)	5.43 µM (inactive)	3.13 µM (inactive)	3.21 µM (inactive)	1.31 µM (inactive)	12.8 µM (inactive)	3.9 µM (inactive)
CCn1c(SCC(=O)N/N=C/c2ccccc2)nc2ccccc2c1=O	7.94 µM (inactive)	3.87	9.89 µM (inactive)	21.8 µM (inactive)	6.68 µM (inactive)	7.66 µM (inactive)	3.7 µM (inactive)	12.8 µM (inactive)	4.8 µM (inactive)	12.9 µM (inactive)	26.9 µM (inactive)	14.1 µM (inactive)	7.16 µM (inactive)	5.52 µM (inactive)	12.8 µM (inactive)	13.1 µM (inactive)	8.34 µM (inactive)	4.06 µM (inactive)	10.4 µM (inactive)	29.9 µM (inactive)
